Measurements as given in US20240270821A1, “GIP/GLP1/GCG TRI-RECEPTOR AGONISTS AND USES THEREOF” (priority 2023, published 2024).
pEC50: −log10 of the molar value. Starred links: 1 amine or outer side, 2 acyl side, 3 side chain; linkers in the order of their positions; H or OH if unused. Non-standard residues stand in square brackets, D forms with d. Residues, ends and D or L forms follow the SMILES beside them. Groups on a side chain read outwards from the residue. *: point of attachment. C18 diacid = O=C(O)CCCCCCCCCCCCCCCCC(=O)*; αMePhe(2-F) = C[C@](N)(Cc1ccccc1F)C(=O)O; γGlu = O=C(O)[C@H](CCC(=O)[*:2])N[*:1]; αMeY = C[C@](N)(Cc1ccc(O)cc1)C(=O)O; 4Pal = N[C@@H](Cc1ccncc1)C(=O)O; αMeL = CC(C)C[C@](C)(N)C(=O)O; αMeS = C[C@](N)(CO)C(=O)O; Orn = NCCC[C@H](N)C(=O)O; AEEA = NCCOCCOCC(=O)O; Aib = CC(C)(N)C(=O)O

How the values were obtained:
Type in all cases: cell-based
hGcgR = hGcgR (Homo sapiens, UniProt P47871); experiment: Functional cAMP activation in the presence of 0.1% casein (no HSA); conditions: read-out: Relative cAMP EC50, hGcgR;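 note: intracellular cAMP rise after 30 min at 37 °C, read by HTRF against a cAMP standard curve, scaled from buffer only (0%) to maximal control ligand response (100%)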
hGIPR [1] = target: T1, hGIPR (Homo sapiens, UniProt P48546); experiment: as above; conditions: read-out: Relative cAMP EC50, hGIPR;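 note: intracellular cAMP rise after 30 min at 37 °C read by HTRF against a standard curve, scaled between buffer alone (0%) and top control ligand concentration (100%), four-parameter fit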
T1 sequence (P48546 22-466): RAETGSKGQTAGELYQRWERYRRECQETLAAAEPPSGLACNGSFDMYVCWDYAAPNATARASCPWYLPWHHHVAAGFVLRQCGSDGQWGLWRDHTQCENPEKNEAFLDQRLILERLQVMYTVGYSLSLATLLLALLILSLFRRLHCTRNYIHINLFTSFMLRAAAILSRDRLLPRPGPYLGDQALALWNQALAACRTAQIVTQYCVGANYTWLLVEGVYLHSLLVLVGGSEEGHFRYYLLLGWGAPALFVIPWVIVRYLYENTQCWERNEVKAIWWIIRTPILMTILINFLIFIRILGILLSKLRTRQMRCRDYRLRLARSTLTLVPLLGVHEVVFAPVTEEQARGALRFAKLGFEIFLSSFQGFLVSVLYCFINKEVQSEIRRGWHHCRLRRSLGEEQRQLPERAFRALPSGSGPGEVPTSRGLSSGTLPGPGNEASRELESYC

hGLP-1R [2] = target: T2, hGLP-1R (Homo sapiens, UniProt P43220); experiment: Functional cAMP activity in the presence of 1% HSA; conditions: read-out: cAMP Rel EC50, hGLP-1R
hGIPR [3] = target: T1, hGIPR; experiment: Functional cAMP activity in the presence of 1% HSA; conditions: read-out: cAMP Rel EC50, hGIPR
human GcgR = human GcgR (Homo sapiens, UniProt P47871); experiment: Functional cAMP activity in the presence of 1% HSA; conditions: read-out: cAMP Rel EC50, hGcgR
hGLP-1R [4] = target: T2, hGLP-1R; experiment: Functional cAMP activation in the presence of 0.1% casein (no HSA); conditions: read-out: Relative cAMP EC50, hGLP-1R;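 for Relative cAMP EC50, hGIPR: intracellular cAMP rise after 30 min at 37 °C read by HTRF against a standard curve, scaled between buffer alone (0%) and top control ligand concentration (100%), four-parameter fit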;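 for Relative cAMP EC50, hGLP-1R: intracellular cAMP rise after 30 min at 37 °C read by HTRF, normalized between buffer only (0%) and maximal control ligand (100%), four-parameter variable-slope fit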

T2 sequence (P43220 24-463): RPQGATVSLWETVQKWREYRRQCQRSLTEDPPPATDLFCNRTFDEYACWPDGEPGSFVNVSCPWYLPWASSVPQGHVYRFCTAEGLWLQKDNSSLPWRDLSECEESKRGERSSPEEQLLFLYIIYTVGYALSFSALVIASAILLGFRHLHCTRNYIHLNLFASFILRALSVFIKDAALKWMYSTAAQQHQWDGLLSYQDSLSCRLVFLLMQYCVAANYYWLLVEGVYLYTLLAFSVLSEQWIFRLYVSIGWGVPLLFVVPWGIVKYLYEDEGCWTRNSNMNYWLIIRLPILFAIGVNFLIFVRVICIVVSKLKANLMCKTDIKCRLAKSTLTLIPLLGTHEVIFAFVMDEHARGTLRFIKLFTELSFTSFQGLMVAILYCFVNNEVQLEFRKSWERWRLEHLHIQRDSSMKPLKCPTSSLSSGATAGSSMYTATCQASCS
hGcgR, sequence (P47871 26-477): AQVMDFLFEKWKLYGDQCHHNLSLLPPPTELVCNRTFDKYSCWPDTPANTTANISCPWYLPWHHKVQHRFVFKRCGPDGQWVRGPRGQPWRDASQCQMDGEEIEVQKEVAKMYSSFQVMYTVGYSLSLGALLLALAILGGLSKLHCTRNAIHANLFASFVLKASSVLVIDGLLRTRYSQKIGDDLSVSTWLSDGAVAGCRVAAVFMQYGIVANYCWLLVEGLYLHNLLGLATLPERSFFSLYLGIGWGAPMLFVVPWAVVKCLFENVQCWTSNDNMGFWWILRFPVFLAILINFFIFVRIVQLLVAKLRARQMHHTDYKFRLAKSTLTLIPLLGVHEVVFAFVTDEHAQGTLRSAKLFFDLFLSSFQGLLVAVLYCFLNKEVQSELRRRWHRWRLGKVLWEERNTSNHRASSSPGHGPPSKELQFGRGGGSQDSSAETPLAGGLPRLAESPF
human GcgR, sequence (P47871 26-477): as above

Row | pEC50 (hGcgR) | pEC50 (hGIPR [1]) | pEC50 (hGLP-1R [2]) | pEC50 (hGIPR [3]) | pEC50 (human GcgR) | pEC50 (hGLP-1R [4]) | Structure (SMILES)
1 | 8.36 | 10.20 | 7.82 | 7.84 | 6.78 | 9.53 | CC[C@H](C)[C@H](NC(=O)[C@H](Cc1ccccc1)NC(=O)[C@H](CCCN)NC(=O)C(C)(C)NC(=O)[C@H](CCC(N)=O)NC(=O)[C@H](C)NC(=O)[C@H](CCCCNC(=O)CC[C@H](NC(=O)CC[C@H](NC(=O)CCCCCCCCCCCCCCCCC(=O)O)C(=O)O)C(=O)O)NC(=O)[C@H](CCCN)NC(=O)[C@H](CC(=O)O)NC(=O)[C@H](CC(C)C)NC(=O)[C@](C)(CC(C)C)NC(=O)[C@@H](NC(=O)[C@](C)(CO)NC(=O)[C@H](Cc1ccncc1)NC(=O)[C@H](CC(=O)O)NC(=O)[C@H](CO)NC(=O)[C@@H](NC(=O)[C@](C)(Cc1ccccc1F)NC(=O)[C@@H](NC(=O)CNC(=O)[C@H](CCC(N)=O)NC(=O)C(C)(C)NC(=O)[C@@H](N)Cc1ccc(O)cc1)[C@@H](C)O)[C@@H](C)O)[C@@H](C)CC)C(=O)N[C@H](CCC(=O)O)C(=O)N[C@@](C)(Cc1ccc(O)cc1)C(=O)N[C@@H](CC(C)C)C(=O)N[C@@H](CCC(N)=O)C(=O)N[C@@H](CCC(=O)O)C(=O)NCC(=O)NCC(=O)N1CCC[C@H]1C(=O)N[C@@H](CO)C(=O)N[C@@H](CO)C(=O)NCC(=O)N[C@@H](CCC(=O)O)C(=O)N1CCC[C@H]1C(=O)N1CCC[C@H]1C(=O)N1CCC[C@H]1C(=O)N[C@@H](CCC(=O)O)C(N)=O [Example 439] (H-Y[Aib]QGT[αMePhe(2-F)]TSD[4Pal][αMeS]I[αMeL]LD[Orn]K([γGlu-γGlu-C18 diacid])AQ[Aib][Orn]FI[dE][αMeY]LQEGGPSSGEPPPE-NH2)
2 | 8.25 | 10.63 | 7.62 | 8.74 | 6.47 | 9.57 | CC[C@H](C)[C@H](NC(=O)[C@H](Cc1ccccc1)NC(=O)[C@H](C)NC(=O)C(C)(C)NC(=O)[C@H](CCC(N)=O)NC(=O)[C@H](C)NC(=O)[C@H](CCCCNC(=O)COCCOCCNC(=O)CC[C@H](NC(=O)CCCCCCCCCCCCCCCCC(=O)O)C(=O)O)NC(=O)[C@H](CCCCN)NC(=O)[C@H](CC(=O)O)NC(=O)[C@H](CC(C)C)NC(=O)[C@](C)(CC(C)C)NC(=O)[C@@H](NC(=O)[C@H](CO)NC(=O)[C@H](Cc1ccncc1)NC(=O)[C@H](CC(=O)O)NC(=O)[C@H](CO)NC(=O)[C@@H](NC(=O)[C@](C)(Cc1ccccc1F)NC(=O)[C@@H](NC(=O)CNC(=O)[C@H](CCC(N)=O)NC(=O)C(C)(C)NC(=O)[C@@H](N)Cc1ccc(O)cc1)[C@@H](C)O)[C@@H](C)O)[C@@H](C)CC)C(=O)N[C@@H](CCC(=O)O)C(=O)N[C@@H](Cc1ccc(O)cc1)C(=O)N[C@@H](CC(C)C)C(=O)N[C@@H](CCC(=O)O)C(=O)N[C@@H](CCC(=O)O)C(=O)NCC(=O)NCC(=O)N1CCC[C@H]1C(=O)N[C@@H](CO)C(=O)N[C@@H](CO)C(=O)NCC(=O)N[C@@H](CCC(=O)O)C(=O)N1CCC[C@H]1C(=O)N1CCC[C@H]1C(=O)N1CCC[C@H]1C(=O)N[C@@H](CO)C(N)=O [Example 442] (H-Y[Aib]QGT[αMePhe(2-F)]TSD[4Pal]SI[αMeL]LDKK([AEEA-γGlu-C18 diacid])AQ[Aib]AFIEYLEEGGPSSGEPPPS-NH2; N-terminus assumed)
3 | 8.22 | 10.54 | 7.46 | 8.80 | 6.58 | 9.24 | CC[C@H](C)[C@H](NC(=O)[C@H](Cc1ccccc1)NC(=O)[C@H](C)NC(=O)C(C)(C)NC(=O)[C@H](CCC(N)=O)NC(=O)[C@H](C)NC(=O)[C@H](CCCCNC(=O)COCCOCCNC(=O)CC[C@H](NC(=O)CCCCCCCCCCCCCCCCC(=O)O)C(=O)O)NC(=O)[C@H](CCCCN)NC(=O)[C@H](CC(=O)O)NC(=O)[C@H](CC(C)C)NC(=O)[C@](C)(CC(C)C)NC(=O)[C@@H](NC(=O)[C@H](CO)NC(=O)[C@H](Cc1ccncc1)NC(=O)[C@H](CC(=O)O)NC(=O)[C@H](CO)NC(=O)[C@@H](NC(=O)[C@](C)(Cc1ccccc1F)NC(=O)[C@@H](NC(=O)CNC(=O)[C@H](CCC(N)=O)NC(=O)C(C)(C)NC(=O)[C@@H](N)Cc1ccc(O)cc1)[C@@H](C)O)[C@@H](C)O)[C@@H](C)CC)C(=O)N[C@@H](CCC(=O)O)C(=O)N[C@@H](Cc1ccc(O)cc1)C(=O)N[C@@H](CC(C)C)C(=O)N[C@@H](CCC(=O)O)C(=O)N[C@@H](CCC(=O)O)C(=O)NCC(=O)NCC(=O)N1CCC[C@H]1C(=O)N[C@@H](CO)C(=O)N[C@@H](CO)C(=O)NCC(=O)N[C@@H](C)C(=O)N1CCC[C@H]1C(=O)N[C@@H](CCC(=O)O)C(=O)N1CCC[C@H]1C(=O)N[C@@H](CO)C(N)=O [Example 443] (H-Y[Aib]QGT[αMePhe(2-F)]TSD[4Pal]SI[αMeL]LDKK([AEEA-γGlu-C18 diacid])AQ[Aib]AFIEYLEEGGPSSGAPEPS-NH2)

Row | Structure (SMILES) | pEC50 (hGcgR) | pEC50 (hGIPR [1]) | pEC50 (hGLP-1R [2]) | pEC50 (hGIPR [3]) | pEC50 (human GcgR) | pEC50 (hGLP-1R [4])
4 | CC[C@H](C)[C@H](NC(=O)[C@H](Cc1ccccc1)NC(=O)[C@H](C)NC(=O)C(C)(C)NC(=O)[C@H](CCC(N)=O)NC(=O)[C@H](C)NC(=O)[C@H](CCCCNC(=O)CC[C@H](NC(=O)CC[C@H](NC(=O)CCCCCCCCCCCCCCCCC(=O)O)C(=O)O)C(=O)O)NC(=O)[C@H](CCCCN)NC(=O)[C@H](CC(=O)O)NC(=O)[C@H](CC(C)C)NC(=O)[C@](C)(CC(C)C)NC(=O)[C@@H](NC(=O)[C@H](CO)NC(=O)[C@H](Cc1ccncc1)NC(=O)[C@H](CC(=O)O)NC(=O)[C@H](CO)NC(=O)[C@@H](NC(=O)[C@](C)(Cc1ccccc1F)NC(=O)[C@@H](NC(=O)CNC(=O)[C@H](CCC(N)=O)NC(=O)C(C)(C)NC(=O)[C@@H](N)Cc1ccc(O)cc1)[C@@H](C)O)[C@@H](C)O)[C@@H](C)CC)C(=O)N[C@@H](CCC(=O)O)C(=O)N[C@@H](Cc1ccc(O)cc1)C(=O)N[C@@H](CC(C)C)C(=O)N[C@@H](CCC(=O)O)C(=O)N[C@@H](CCC(=O)O)C(=O)NCC(=O)NCC(=O)N1CCC[C@H]1C(=O)N[C@@H](CO)C(=O)N[C@@H](CO)C(=O)NCC(=O)N[C@@H](C)C(=O)N1CCC[C@H]1C(=O)N1CCC[C@H]1C(=O)N1CCC[C@H]1C(=O)N[C@@H](CO)C(N)=O [Example 440] (H-Y[Aib]QGT[αMePhe(2-F)]TSD[4Pal]SI[αMeL]LDKK([γGlu-γGlu-C18 diacid])AQ[Aib]AFIEYLEEGGPSSGAPPPS-NH2) | 8.15 | 10.65 | 7.56 | 8.74 | 6.08 | 9.33
5 | CC[C@H](C)[C@H](NC(=O)[C@H](Cc1ccccc1)NC(=O)[C@H](C)NC(=O)C(C)(C)NC(=O)[C@H](CCC(N)=O)NC(=O)[C@H](C)NC(=O)[C@H](CCCCNC(=O)CC[C@H](NC(=O)CC[C@H](NC(=O)CCCCCCCCCCCCCCCCC(=O)O)C(=O)O)C(=O)O)NC(=O)[C@H](CCCN)NC(=O)[C@H](CC(=O)O)NC(=O)[C@H](CC(C)C)NC(=O)[C@](C)(CC(C)C)NC(=O)[C@@H](NC(=O)[C@H](CO)NC(=O)[C@H](Cc1ccncc1)NC(=O)[C@H](CC(=O)O)NC(=O)[C@H](CO)NC(=O)[C@@H](NC(=O)[C@](C)(Cc1ccccc1F)NC(=O)[C@@H](NC(=O)CNC(=O)[C@H](CCC(N)=O)NC(=O)C(C)(C)NC(=O)[C@@H](N)Cc1ccc(O)cc1)[C@@H](C)O)[C@@H](C)O)[C@@H](C)CC)C(=O)N[C@@H](CCC(=O)O)C(=O)N[C@@H](Cc1ccc(O)cc1)C(=O)N[C@@H](CC(C)C)C(=O)N[C@@H](CCC(=O)O)C(=O)N[C@@H](CCC(=O)O)C(=O)NCC(=O)NCC(=O)N1CCC[C@H]1C(=O)N[C@@H](CO)C(=O)N[C@@H](CO)C(=O)NCC(=O)N[C@@H](C)C(=O)N1CCC[C@H]1C(=O)N1CCC[C@H]1C(=O)N1CCC[C@H]1C(=O)N[C@@H](CO)C(N)=O [Example 441] (H-Y[Aib]QGT[αMePhe(2-F)]TSD[4Pal]SI[αMeL]LD[Orn]K([γGlu-γGlu-C18 diacid])AQ[Aib]AFIEYLEEGGPSSGAPPPS-NH2) | 8.10 | 10.62 | 7.61 | 8.71 | 6.07 | 9.44
